Assay results reported in ChEMBL document CHEMBL5308541, “MAIP: An Open-Source Tool to Enrich High-Throughput Screening Output and Identify Novel, Druglike Molecules with Antimalarial Activity” (ACS Med Chem Lett, 2023).

What was measured:
Plasmodium falciparum [1] = experiment: Hit confirmation in dose-response curve in Dd2 pLDH assay, at 72h; assay type: functional, organism-based, Erythrocyte; design: timepoint 72 hour; conditions: Plasmodium falciparum, Dd2, Erythrocyte, 72 h
Plasmodium falciparum [2] = experiment: Hit confirmation in dose-response curve in NF54 nanoGlo assay, at 12h; assay type: functional, organism-based, Erythrocyte; design: timepoint 12 hour; conditions: Plasmodium falciparum, NF54, Erythrocyte, 12 h
[3] = Hit confirmation in dose-response curve in HepG2 cytotoxicity assay, at 72h; assay type: toxicity, cell-based, Homo sapiens; design: timepoint 72 hour; conditions: human, HepG2 cells
Plasmodium falciparum [4] = experiment: Hit confirmation in dose-response curve in NF54 nanoGlo assay, at 72h; assay type: functional, organism-based, Erythrocyte; design: timepoint 72 hour; conditions: Plasmodium falciparum, NF54, Erythrocyte, 72 h
Plasmodium falciparum [5] = experiment: Hit confirmation in dose-response curve in NF54 pLDH assay, at 72h; assay type: functional, organism-based, Erythrocyte; design: timepoint 72 hour; conditions: Plasmodium falciparum, NF54, Erythrocyte, 72 h

SMILES | IC50 (Plasmodium falciparum [1]) [µM] | IC50 (Plasmodium falciparum [2]) [µM] | IC50 (Plasmodium falciparum [4]) [µM] | IC50 (Plasmodium falciparum [5]) [µM] | IC50 at 72 h [3] [µM]
Oc1ccc(C2=CCN(Cc3cccc4[nH]ccc34)CC2)cc1 | 5.75 | > 10 | 7.24 | 10 | > 10
CN(c1ccccc1)c1ccc(CN2CCN([C@H]3CCNC3)CC2)cc1 | 6.46 | > 10 | 4.17 | 9.33 | > 10
Cc1sc2nc(-c3ccccn3)nc(NCCc3nccn3C)c2c1-c1ccccc1 | 3.55 | 8.91 | 3.24 | 8.71 | 8.32
Brc1cccc(NCCNC2CCN(Cc3cccnc3)CC2)c1 | 3.72 | 8.51 | 3.8 | 3.8 | > 10
COc1ccc2[nH]cc(C3=CCN(c4ccc5nnc(-c6ccccc6F)n5n4)CC3)c2c1 | > 10 | > 10 | 2.69 | 8.71 | > 10
O=C1C2CCCCC2C(c2c(-c3ccccc3)[nH]c3ccccc23)N1Cc1ccccc1 (stereo not given) | > 10 | > 10 | > 10 | > 10 | > 10
CNc1nc(C)cc(N[C@@H]2COc3ccccc3C2)n1 | 3.8 | > 10 | 3.39 | 5.25 | > 10
CC(C)(C)n1ncc2c(NCc3ccc4cccnc4c3O)ncnc21 | 5.5 | 10 | 3.89 | 6.46 | 6.31
COc1ccc2c(C)cc(NCCCN3CCC[C@H](C(N)=O)C3)nc2c1 | 3.02 | 6.76 | 2.19 | 2.69 | > 10
Clc1cccc(N2CC[C@H](CNC3CCN(Cc4ccco4)CC3)C2)c1 | 3.16 | 5.25 | 3.47 | 3.72 | > 10
COc1ccc(-c2cc(-c3ccccc3O)n([C@@H]3C(=O)Nc4ccc(Br)cc43)n2)cc1 | 8.71 | 4.9 | 4.07 | 8.71 | > 10
Cn1cc(-c2cncc(C(=O)NC3CCN(c4cccc(F)c4)CC3)c2)cn1 | > 10 | 1.41 | 3.24 | > 10 | > 10
CCn1cc(-c2cccc(C(=O)N[C@@H](C)CN3CCc4ccccc4C3)c2)cn1 | 9.77 | > 10 | 8.32 | 9.12 | > 10
Cc1cc(N2CCC(NCCCN3CCCc4ccccc43)CC2)nc(N)n1 | 3.72 | > 10 | 3.09 | 3.63 | > 10
NCCCCc1c(-c2cccnc2)[nH]c2c(Cl)cc(Cl)cc12 | 4.07 | 6.92 | 4.47 | 4.47 | 9.55
CCN1CCC(N2CCC(C(=O)NCCc3ccc(OC(F)(F)F)cc3)CC2)CC1 | 3.31 | 6.76 | 3.31 | 3.8 | > 10
N#Cc1cccc(Cl)c1N1CCC(N2CCCC2)CC1 | 3.8 | > 10 | 3.02 | 3.89 | > 10
O[C@@H](CNCc1cc2cc(Cl)c(Cl)cc2[nH]1)c1ccc(F)cc1 | 3.39 | 5.01 | 2.34 | 8.51 | > 10
COc1ccc(CCNCc2ccc3[nH]cnc3c2)c(Cl)c1 | 3.47 | > 10 | 3.02 | 4.47 | > 10
Cc1ccc2[nH]cc(-c3cc(N4CCOCC4)nc(N)n3)c2c1 | 7.08 | 9.77 | 5.62 | 7.59 | > 10
Cc1cc(N2CCC(N(C)Cc3cc(-c4ccccc4)n[nH]3)CC2)nc(N)n1 | 3.72 | > 10 | 3.24 | 4.47 | > 10
OC1(c2ccc(Cl)cc2)CCN(C[C@@H]2CCCN3CCCC[C@H]23)CC1 | 3.72 | 7.41 | 3.98 | 4.07 | > 10
Oc1ccc(OC(F)(F)F)cc1-c1ccc2nccn2n1 | 6.31 | 6.76 | 3.16 | 7.76 | > 10
CN(C[C@H](O)COc1cccc(CNCCCOc2cccnc2)c1)C1CCCCC1 | 6.92 | > 10 | 5.13 | 6.17 | > 10
CCc1cc(Nc2ccc(N3CCOCC3)nc2)nc(-c2ccncc2)n1 | 6.31 | > 10 | 3.72 | 4.47 | > 10
Cn1cncc1[C@@H]1CNC[C@H]1CNC(=O)c1ccccc1NC1CCCCC1 | 4.17 | 8.13 | 3.89 | 6.76 | > 10
FC(F)(F)c1ccc(N2CCC[C@H](NC3CCN(Cc4ccco4)CC3)C2)nc1 | 8.13 | > 10 | 7.59 | 7.59 | > 10
Fc1ccc(N2CC[C@H](CN3CCC(c4c[nH]c5ccccc45)(c4c[nH]c5ccccc45)CC3)C2)cc1 | 4.27 | 2.51 | 1.91 | 6.61 | > 10
CN(C)CCN1CCC(NC2CCC(O)(c3cccc(Cl)c3)CC2)CC1 (stereo not given) | 3.72 | > 10 | 5.01 | 4.47 | > 10

Now from value to compound, other results behind:

IC50 (Plasmodium falciparum [1]) [µM] | IC50 (Plasmodium falciparum [2]) [µM] | IC50 (Plasmodium falciparum [4]) [µM] | IC50 (Plasmodium falciparum [5]) [µM] | SMILES | IC50 at 72 h [3] [µM]
2.19 | 3.63 | 1.41 | 2.24 | O[C@H]1CCN(Cc2ccccc2CNc2cccc(-n3ccnc3)n2)C1 | > 10
3.02 | > 10 | 1.58 | 3.98 | Cc1noc(-c2ccnc(NC[C@@H](c3ccccn3)N3CCOCC3)c2)n1 | > 10
2.82 | 5.37 | 2.51 | 2.95 | CN1CCC(N(Cc2ccccc2)C(=O)c2cc3cnccc3[nH]2)CC1 | > 10
2.14 | > 10 | 2.51 | 3.39 | Cc1cnccc1NCCNCc1cnc(N2CCCCC2)nc1 | > 10
2.69 | 7.24 | 3.39 | 3.89 | Cc1cc(NCCCN2CCC[C@H](O)C2)c2cc(F)ccc2n1 | > 10
1.12 | 2 | 1.32 | 1.15 | CCN1CCN([C@H]2CCN(c3ccnc4ccncc34)C2)CC1 | > 10
1.2 | 2.75 | 1.45 | 1.38 | Cc1cnccc1NCCNCc1cccc(OCCCCN2CCOCC2)c1 | > 10
2.29 | > 10 | 2.45 | 2.63 | CNc1nc(N[C@H]2CCCN(Cc3ccc(Cl)cc3)C2)nc2c1CCC2 | > 10
2.29 | 5.89 | 3.39 | 3.47 | COc1ccc(CNCc2cc3ccccc3[nH]2)cc1CN(C)C | > 10
1.12 | 1.55 | 0.912 | 1.1 | COc1cc2nc(-c3ccc(F)c4cccnc34)nc(N)c2cc1OC | 1.02
2.63 | 6.61 | 2.63 | 2.57 | O=C(NCc1ccc(N2CCNCC2)c(F)c1)c1ccc(-c2noc(C(F)(F)F)n2)cc1 | > 10
2.24 | 8.51 | 2.14 | 3.47 | COc1cc2nc(NCC3(N4CCN(C)CC4)CCCC3)cc(C)c2cc1OC | > 10
2.4 | > 10 | 0.912 | 1.41 | COc1ccc2nc3cc(Cl)ccc3c(O)c2c1 | > 10
0.575 | > 10 | 1.48 | 0.398 | C[C@H]1CCCN(CCNC(=O)c2ccc(-c3ccc4c(=O)[nH]ccc4c3)cc2)C1 | > 10
1.58 | > 10 | 1.74 | 1.91 | CC(CNc1nc(NCC(C)N2CCOCC2)c2cc(Cl)ccc2n1)N1CCOCC1 (stereo not given) | > 10
1.23 | 2.69 | 1.55 | 1.35 | CCN(Cc1cnn(-c2cccc(Cl)c2)c1)CC1CCN(C2CCN(C)CC2)CC1 | > 10
2.75 | 8.71 | 3.02 | 5.37 | COCCNc1nc(N[C@@H](C)c2ccccc2)c2ccccc2n1 | > 10
2.19 | 0.955 | 0.676 | 1.55 | O=C(Nc1cnc2c(c1)COCC2)c1cc2c(OC(F)(F)F)cccc2[nH]1 | > 10
1.62 | 3.09 | 1.51 | 1.74 | CCN(Cc1[nH]c2ccc(Cl)cc2c1C)CC1CCN(C2CCN(C)CC2)CC1 | > 10
1.41 | 1.82 | 0.832 | 1.7 | c1ccc2c(Nc3ccc4[nH]cnc4c3)c3ccccc3nc2c1 | > 10
1.23 | > 10 | 1.15 | 1.29 | Cc1cccc(Nc2ccnc(Nc3ccc(N4CCN(C)CC4)cc3)n2)c1 | > 10
1.78 | 5.37 | 2.19 | 2.29 | CCCN1CCC(Nc2cc(C)nc3ccccc23)CC1 | > 10
